Entries after “also recorded” stand apart in the source; their conditions may differ.
Assays:
SARS-CoV PL^pro [1] = biological target: T1, SARS-CoV PL^pro (Severe acute respiratory syndrome coronavirus, UniProt P0C6U8); format: biochemical
Papain = biological target: T2, Papain (Carica papaya, UniProt P00784); test: biochemical
T2 sequence (P00784 134-345): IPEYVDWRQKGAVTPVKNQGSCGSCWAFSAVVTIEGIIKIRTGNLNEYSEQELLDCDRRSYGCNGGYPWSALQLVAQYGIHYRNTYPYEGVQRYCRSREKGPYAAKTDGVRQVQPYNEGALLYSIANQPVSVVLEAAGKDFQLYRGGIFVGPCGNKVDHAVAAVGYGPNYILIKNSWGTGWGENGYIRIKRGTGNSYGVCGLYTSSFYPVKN

[2] = biological target: SARS-CoV PL^pro deubiquitination (DUB) activity (Severe acute respiratory syndrome coronavirus, UniProt P0C6U8); test: biochemical
Chymotrypsin = Chymotrypsin (Bos taurus, UniProt P00766); test: biochemical
HIV-1 protease = HIV-1 protease (Human immunodeficiency virus type 1 group M subtype B, UniProt P04585); test: biochemical
SARS-CoV PL^pro [3] = biological target: T1, SARS-CoV PL^pro; format: biochemical; remark: listed apart in the source
SARS-CoV 3CL^pro = SARS-CoV 3CL^pro (Severe acute respiratory syndrome coronavirus, UniProt P0C6U8); format: biochemical; details: at 200 μM

Molecule	k5 (SARS-CoV PL^pro [1]) [min⁻¹]	k6 (SARS-CoV PL^pro [1]) [min⁻¹]	IC50 (Papain) [µM]	also measured
COC(=O)[C@@]1(C)CCCc2c1ccc1c2C(=O)C(=O)c2c(C)coc2-1 [Compound 3, Methyl tanshinonate]	0.0193 ± 0.001	0.002657 ± 0.0002	> 200	IC50 [2]: > 200 µM
Cc1coc2c1C(=O)C(=O)c1c-2ccc2c(C)cccc12 [Compound 5, Tanshinone I]	0.03015 ± 0.003	0.003349 ± 0.0003	> 200	
Cc1coc2c1C(=O)C(=O)c1c-2ccc2c1CCCC2(C)CO (stereo not shown) [Compound 2, Tanshinone IIB]	0.02503 ± 0.003	0.004704 ± 0.0002	> 200	IC50 (Chymotrypsin): > 200 µM; IC50 (HIV-1 protease): > 200 µM
Cc1coc2c1C(=O)C(=O)c1c-2ccc2c1CCCC2(C)C [Compound 1, Tanshinone IIA]	0.04825 ± 0.006	0.008485 ± 0.0001		IC50 [2]: > 200 µM
C[C@H]1COC2=C1C(=O)C(=O)c1c2ccc2c1CCCC2(C)C [Compound 4, Cryptotanshinone]	0.08127 ± 0.001	0.001406 ± 0.0001		slow-binding inhibition mechanism on PL^pro (SARS-CoV PL^pro [1]): slow-binding inhibition kinetics; type of inhibition toward PL^pro (SARS-CoV PL^pro [3]): Noncompetitive inhibition
Cc1cccc2c3c(ccc12)C1=C(C(=O)C3=O)[C@@H](C)CO1 [Compound 6, Dihydrotanshinone I]	0.03203 ± 0.001	0.003175 ± 0.0003	> 200	IC50 (Chymotrypsin): > 200 µM
Salvianolic acid B				inhibition of 3CL^pro (SARS-CoV 3CL^pro): 30%
CC(C)C1=Cc2ccc3c(c2C(=O)C1=O)CCCC3(C)C [Compound 7, Rosmariquinone]				k3 (SARS-CoV PL^pro [1]): 5 ± 0.83 M⁻¹ s⁻¹; k4 (SARS-CoV PL^pro [1]): 0.006483 ± 0.0004 min⁻¹; slow-binding inhibition mechanism on PL^pro (SARS-CoV PL^pro [1]): simple reversible slow-binding inhibition; also recorded: simple slow-binding mode; also recorded: simple reversible slow-binding inhibitor; type of inhibition toward PL^pro (SARS-CoV PL^pro [3]): mixed type inhibition
